Experimental data from patent publication US7404975B2, “Moringa crude extracts and their derived fractions with antifungal activities” (Academia Sinica, priority 2006, dated 2008).

Tested on: Epidermophyton floccosum
Assay: Broth dilution anti-fungal susceptibility assay (NCCLS M38-A), MIC
Type: cell-based
Method: M. oleifera was grown and collected from Taichung, Taiwan. The seeds were de-hulled and the seed kernels dried at 100° C. for 24 h before extraction. The leaves were freshly harvested from M. oleifera trees of at least one-year-old and immediately air-dried. All materials were lyophilized and powdered before experiments. The dermatophytes used in this study were obtained from the Food Industry Research and Development Institute (FIRDI) in Taiwan. Trichophyton rubrum (BCRC 32805), Trichophyton mentagrophytes (BCRC 32066), Epidermophyton floccosum (BCRC 30531) and Microsporum canis (BCRC 30541) were maintained by monthly sub-culturing on Sabouraud dextrose agar (SDA) at 28° C.
The anti-fungal assays followed the protocol (document M38-A) of The National Committee for Clinical Laboratory Standards (NCCLS) in the USA. The protocol is a standard method for broth dilution anti-fungal susceptibility testing of filamentous fungi. 100× of the drug (such as ketoconozole; the MICs of this agent tested on the fungi described above were from 0.125 μg/ml to 12.5 μg/ml ) used for the control experiment. […] The minimal inhibitory concentration (MIC), which is defined as the lowest concentration of an anti-microbial agent preventing the visible growth of a microorganism in an agar or broth dilution susceptibility test (numerical score 0), was determined for each test sample.

Structure (SMILES): CC(=O)N1CCN(c2ccc(OCC3COC(Cn4ccnc4)(c4ccc(Cl)cc4Cl)O3)cc2)CC1 (stereo not shown) [ketoconozole, ketoconazole]
- MIC (text comparison ketoconozole vs EOF): 0.125 ˜ig/ml
